Data taken from PubChem BioAssay (NCI).
Several values for one entry are separate records, joined by “and”; a condition that tells them apart may be missing. Identical values can stand only once.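 All cell lines were grown in 96-well plates and treated with compound for 48 hours. At the GI50, growth is halved. TGI: total growth inhibition.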

Tests used:
Assay in all cases: NCI anticancer screen, dose series, 48 h
HCT-15 colon = tested on: HCT-15 colon
HCT-116 colon = tested on: HCT-116 colon
LOX IMVI melanoma = tested on: LOX IMVI melanoma
MDA-MB-435 = tested on: MDA-MB-435
OVCAR-3 ovarian = tested on: OVCAR-3 ovarian
PC-3 prostate = tested on: PC-3 prostate
SN12C renal = tested on: SN12C renal
DLD-1 colon = tested on: DLD-1 colon
SNB-78 CNS = tested on: SNB-78 CNS
M19-MEL melanoma = tested on: M19-MEL melanoma

Compound | GI50 (HCT-15 colon) | TGI (HCT-15 colon) | GI50 (HCT-116 colon) | TGI (HCT-116 colon) | GI50 (LOX IMVI melanoma) | TGI (LOX IMVI melanoma) | GI50 (MDA-MB-435) | TGI (MDA-MB-435) | GI50 (OVCAR-3 ovarian) | TGI (OVCAR-3 ovarian) | GI50 (PC-3 prostate) | TGI (PC-3 prostate) | GI50 (SN12C renal) | TGI (SN12C renal) | TGI (DLD-1 colon) | TGI (SNB-78 CNS) | TGI (M19-MEL melanoma) | GI50 (DLD-1 colon) | GI50 (M19-MEL melanoma)
Cc1cc(C)c(S(=O)(=O)N(CCc2cccc(Br)c2)Cc2ccc(-c3cccc(S(C)(=O)=O)c3)cc2)c(C)c1 | > 100 µM | > 100 µM | > 100 µM | > 100 µM | > 100 µM | > 100 µM | > 100 µM | > 100 µM | > 100 µM | > 100 µM | > 100 µM | > 100 µM | > 100 µM | > 100 µM | – | – | – | – | –
COc1cccc(N=N/C(=N\NC(=O)c2cc(Br)ccc2O)c2ccc(N(CCC#N)CCC#N)cc2OC)c1 | 52 µg/mL | > 150 µg/mL | 46.4 µg/mL | > 150 µg/mL | 15 µg/mL | 15 µg/mL | 67.8 µg/mL | > 150 µg/mL | 59 µg/mL | > 150 µg/mL | 49.5 µg/mL | > 150 µg/mL | 99.4 µg/mL | > 150 µg/mL | – | – | – | – | –
Cc1ncc(C(=O)Nc2ccc(CN3CCN(C)CC3)c(C(F)(F)F)c2)cc1C#Cc1c(N)ncc2ccccc12 | 0.382 µM | 0.873 µM | 0.159 µM | 0.62 µM | 0.173 µM | 0.605 µM | 0.163 µM | 0.624 µM | 0.484 µM | 1.04 µM | 0.461 µM | 0.996 µM | 0.319 µM | 0.783 µM | – | – | – | – | –
Clc1cc(-c2ccccc2)nc2ccccc12 | – | 36.5 µM | – | > 100 µM | – | > 100 µM | – | 95.4 µM | – | > 100 µM | – | 84.2 µM | – | > 100 µM | – | – | – | – | –
COc1nc2c(nc(N)n2C2OCC(O)C(O)C2O)c(=O)n1C (stereo not given) | – | – | – | > 100 µM | – | > 100 µM | – | – | – | > 100 µM | – | – | – | > 100 µM | > 100 µM | > 100 µM | > 100 µM | – | –
Cc1nc2c(N3CCCC3)nc(N3CCNCC3)nc2nc1NCc1ccccc1 | 4.17 µM | 8.9 µM and 4.53 µM | 3.96 µM | 13.4 µM and 11.3 µM | 2.47 µM | 16.8 µM and 3.19 µM | 4.36 µM | 10 µM and 6.41 µM | 3.28 µM | 9.27 µM and 10.7 µM | – | 11 µM and 17 µM | 6.39 µM | 13 µM and 19.9 µM | – | – | – | – | –
Clc1ccc(CNc2nccc(-c3cnn4ncccc34)n2)cc1 | 8.5 µM | > 25 µM | 7.92 µM | > 25 µM | 6.12 µM | > 25 µM | 6.3 µM | 20.6 µM | 7.32 µM | 21.6 µM | 6.76 µM | > 24 µM | 7.54 µM | > 25 µM | – | – | – | – | –
CS(=O)(=O)N(CCC#N)c1ccc(C=O)cc1 | – | > 100 µM | – | > 100 µM | – | > 100 µM | – | – | – | > 100 µM | – | – | – | > 100 µM | – | – | > 100 µM | – | –
N#Cc1ccc(Oc2cccc(Oc3ccccc3)c2)cc1C#N | – | – | – | > 100 µM | – | – | – | – | – | > 100 µM | – | – | > 100 µM | > 100 µM | > 100 µM | – | > 100 µM | > 100 µM | > 100 µM
NC(=O)c1ccccc1NC(=O)c1ccccc1Cl | > 100 µM | > 100 µM | > 100 µM | > 100 µM | > 100 µM | > 100 µM | 58.9 µM | > 100 µM | > 100 µM | > 100 µM | > 100 µM | > 100 µM | > 100 µM | > 100 µM | – | – | – | – | –
O=C(O)c1ccccc1N=Nc1ccc2oc(=O)c(C(=O)Nc3ccccc3)cc2c1 | – | > 100 µM | – | > 100 µM | – | > 100 µM | – | – | – | 70.4 µM | – | – | – | > 100 µM | > 100 µM | – | > 100 µM | – | –
Cc1ccc2nc(-c3ccc(N)c4ccccc34)[nH]c2c1 | < 0.0425 µM | 13.4 µM | 0.04 µM | 4.57 µM | 0.0801 µM | 15.2 µM | 0.187 µM | 0.444 µM | 0.748 µM | 1.85 µM | 0.0706 µM | 22 µM | 0.0913 µM | 19.4 µM | – | – | – | – | –
Nc1cc(S(N)(=O)=O)ccc1SSc1ccc(S(N)(=O)=O)cc1N | – | > 100 µM | – | > 100 µM | – | > 100 µM | – | > 100 µM | – | > 100 µM | – | > 100 µM | – | > 100 µM | – | – | – | – | –
Nc1ccc(C(OC(=O)c2cc3ccccc3c(Cc3c(O)c(C(=O)OC(c4ccc(N)cc4)(c4ccc(N)cc4)c4ccc(N)cc4)cc4ccccc34)c2O)(c2ccc(N)cc2)c2ccc(N)cc2)cc1 | 4.01 µM | > 100 µM | 0.784 µM | 11.4 µM | 1.41 µM | 43.4 µM | 2.5 µM | 30.3 µM | 1.25 µM | 3.76 µM | 1.22 µM | 20.4 µM | 0.321 µM | 59.1 µM | – | – | – | – | –
CN(C)CCCCn1ccc2c1C(=O)c1c(c(O)c3ccccc3c1O)C2=O | 16 µM | 29.4 µM | 9.03 µM | 21.1 µM | 10.4 µM | 24.2 µM | 2.01 µM | 3.71 µM | 2.98 µM | 15.9 µM | 10 µM | 23.4 µM | 14.1 µM | 28.6 µM | – | – | – | – | –
c1ccc(B2OCC(C3OB(c4ccccc4)OC4COB(c5ccccc5)OC43)O2)cc1 (stereo not given) | – | > 100 µM | – | > 100 µM | – | > 100 µM | – | > 100 µM | – | > 100 µM | – | > 100 µM | – | > 100 µM | – | – | – | – | –
CN(C)CCSCCO | – | > 100 µM | – | > 100 µM | – | > 100 µM | – | > 100 µM | – | > 100 µM | – | > 100 µM | – | > 100 µM | – | – | – | – | –
Nc1c(C(=O)N/N=C/c2ccc(-c3cc(Cl)c(Cl)cc3Cl)o2)cnn1-c1ccnc2c(C(F)(F)F)cccc12 | 3.43 µM | > 100 µM | 3.42 µM | > 100 µM | 4.37 µM | > 100 µM | 3.85 µM | > 100 µM | 3.1 µM | > 100 µM | 2.09 µM | 6.03 µM | 4.42 µM | > 100 µM | – | – | – | – | –
